From BindingDB's records for patent US20240116873 (JIANGSU CHIATAI QINGJIANG PHARMACEUTICAL CO., LTD., 2024)

Tests used:
[1] = target: T1, Solute carrier family 22 member 12 (Homo sapiens, UniProt Q96S37); test: Inhibitory Assay
T1 sequence (Q96S37 whole entry): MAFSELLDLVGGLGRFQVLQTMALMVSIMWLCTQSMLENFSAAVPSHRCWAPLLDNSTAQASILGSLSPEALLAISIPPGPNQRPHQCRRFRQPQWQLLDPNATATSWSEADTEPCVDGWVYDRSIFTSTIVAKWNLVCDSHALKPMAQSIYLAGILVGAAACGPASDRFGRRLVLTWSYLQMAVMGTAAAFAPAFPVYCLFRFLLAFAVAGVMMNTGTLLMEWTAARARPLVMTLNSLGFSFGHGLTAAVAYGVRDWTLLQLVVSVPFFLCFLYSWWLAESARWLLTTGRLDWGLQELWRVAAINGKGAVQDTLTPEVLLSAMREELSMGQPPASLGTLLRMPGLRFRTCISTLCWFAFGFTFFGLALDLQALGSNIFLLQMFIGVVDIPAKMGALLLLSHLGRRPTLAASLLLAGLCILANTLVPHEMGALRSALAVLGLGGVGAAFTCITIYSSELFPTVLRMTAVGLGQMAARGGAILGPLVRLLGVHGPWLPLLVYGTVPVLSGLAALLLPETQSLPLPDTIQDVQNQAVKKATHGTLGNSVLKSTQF

[2] = target: T2, Solute carrier family 22 member 11 (Homo sapiens, UniProt Q9NSA0); test: Inhibitory Assay
T2 sequence (Q9NSA0 whole entry): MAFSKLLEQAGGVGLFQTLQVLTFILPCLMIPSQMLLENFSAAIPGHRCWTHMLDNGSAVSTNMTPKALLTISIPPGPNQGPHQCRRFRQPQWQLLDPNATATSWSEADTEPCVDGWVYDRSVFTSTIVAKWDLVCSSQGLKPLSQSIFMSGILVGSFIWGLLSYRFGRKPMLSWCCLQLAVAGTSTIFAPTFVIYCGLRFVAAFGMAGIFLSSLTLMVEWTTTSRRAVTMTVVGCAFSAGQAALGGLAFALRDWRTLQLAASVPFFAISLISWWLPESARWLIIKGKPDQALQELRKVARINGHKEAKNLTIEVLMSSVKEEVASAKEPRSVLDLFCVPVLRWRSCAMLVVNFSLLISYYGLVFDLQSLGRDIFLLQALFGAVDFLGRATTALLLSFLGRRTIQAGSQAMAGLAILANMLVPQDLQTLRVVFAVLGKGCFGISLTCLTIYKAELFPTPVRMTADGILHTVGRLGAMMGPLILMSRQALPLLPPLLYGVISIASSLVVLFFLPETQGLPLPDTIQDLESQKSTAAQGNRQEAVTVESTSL

Row | SMILES | IC50 [1] | IC50 [2]
1 | Cc1ccc2nccc(SC(C)(C)C(=O)NS(C)(=O)=O)c2c1 [US20240116873, Compound A] | 3150 nM | –
2 | CC(C)(Sc1ccnc2ccc(F)cc12)C(=O)NS(C)(=O)=O [US20240116873, Compound B] | 2790 nM | –
3 | CCS(=O)(=O)NC(=O)C(C)(C)Sc1ccnc2ccc(Br)cc12 [US20240116873, Compound C] | 1180 nM | –
4 | CC(C)(Sc1ccnc2ccc(C(F)(F)F)cc12)C(=O)NS(C)(=O)=O [US20240116873, Compound D] | – | 83.8 µM
5 | CC(C)(Sc1ccnc2ccc(Br)cc12)C(=O)NS(=O)(=O)c1cccs1 [US20240116873, Compound E] | 3420 nM | –
